# Experimental data from US20120015907A1, “Furopyridine compounds and uses thereof” (NOVARTIS AG, priority 2010, published 2012).
# Biological target: T1, HCV polymerase (Hepatitis C virus genotype 1b, UniProt Q9WMX2)
# T1 construct: (His)6 (C)
# Experiment: biochemical
# Details: polymerase assay of Biological Example 1; read-out: NS5B polymerase IC50
row,Compound,IC50
1,"CNC(=O)c1c(-c2ccc(F)cc2)oc2nc(N(CCCCN)S(C)(=O)=O)c(I)cc12 [Example 20, 6-[(4-Amino-butyl)-methanesulfonyl-amino]-2-(4-fluoro-phenyl)-5-iodo-furo[2,3-b]pyridine-3-carboxylic acid methylamide]",1.84 µM
2,"CCc1ccc(-c2oc3nc(N(CCCC(C)(COC)C(=O)O)S(C)(=O)=O)c(C4CC4)cc3c2C(=O)NC)cc1 (stereo not shown) [Example 43, 5-(N-(5-Cyclopropyl-2-(4-ethylphenyl)-3-(methylcarbamoyl)furo[2,3-b]pyridin-6-yl)methylsulfonamido)-2-(methoxymethyl)-2-methylpentanoic acid]",0.002 µM
3,"CCc1ccc(-c2oc3nc(N(CCCC(C)(CCOC)C(=O)O)S(C)(=O)=O)c(C4CC4)cc3c2C(=O)NC)cc1 (stereo not shown) [Example 42, 5-(N-(5-Cyclopropyl-2-(4-ethylphenyl)-3-(methylcarbamoyl)furo[2,3-b]pyridin-6-yl)methylsulfonamido)-2-(2-methoxyethyl)-2-methylpentanoic acid]",0.002 µM
4,"CNC(=O)c1c(-c2ccc(F)cc2)oc2nc(N(CCCCC(=O)O)S(C)(=O)=O)c(C3CC3)cc12 [Example 26.9, 5-(N-(5-cyclopropyl-2-(4-fluorophenyl)-3-(methylcarbamoyl)furo[2,3-b]pyridin-6-yl)methylsulfonamido) pentanoic acid]",0.003 µM
5,"CNC(=O)c1c(-c2ccc(C)cc2)oc2nc(N(CCCC3(C(=O)O)COC3)S(C)(=O)=O)c(C3CC3)cc12 [Example 29.96, 3-(3-(N-(5-cyclopropyl-3-(methylcarbamoyl)-2-p-tolylfuro[2,3-b]pyridin-6-yl)methylsulfonamido)propyl) oxetane-3-carboxylic acid]",0.005 µM
6,"CCc1cc2c(C(=O)NC)c(-c3ccc(F)cc3)oc2nc1N(CCCS(=O)(=O)C(C)(C)C)S(C)(=O)=O [Example 23.93, 6-(N-(3-(tert-butylsulfonyl)propyl)methylsulfonamido)-5-ethyl-2-(4-fluorophenyl)-N-methylfuro[2,3-b]pyridine-3-carboxamide]",0.044 µM
7,"CNC(=O)c1c(-c2ccc(C)cc2)oc2nc(N(CCCC3(CC(=O)O)CCOCC3)S(C)(=O)=O)c(C3CC3)cc12 [Example 48, 2-(4-(3-(N-(5-cyclopropyl-3-(methylcarbamoyl)-2-p-tolylfuro[2,3-b]pyridin-6-yl)methylsulfonamido)propyl)tetrahydro-2H-pyran-4-yl)acetic acid]",0.008 µM
8,"CCc1cc2c(C(=O)NC)c(-c3ccc(F)cc3)oc2nc1N(CCOc1ccccc1C(=O)OC)S(C)(=O)=O [Example 22.5, methyl 2-(2-(N-(5-ethyl-2-(4-fluorophenyl)-3-(methylcarbamoyl)furo[2,3-b]pyridin-6-yl)methylsulfonamido)ethoxy)benzoate]",0.083 µM
9,"CNC(=O)c1c(-c2ccc(C)cc2)oc2nc(N(CCCCc3nn[nH]n3)S(C)(=O)=O)c(C3CC3)cc12 [Example 29.93, 6-(N-(4-(2H-tetrazol-5-yl)butyl)methylsulfonamido)-5-cyclopropyl-N-methyl-2-p-tolylfuro[2,3-b]pyridine-3-carboxamide]",0.003 µM
10,"CNC(=O)c1c(-c2ccc(C)cc2)oc2nc(N(CCCC#N)S(C)(=O)=O)c(C3CC3)cc12 [Example 29.5, 6-(N-(3-cyanopropyl)methylsulfonamido)-5-cyclopropyl-N-methyl-2-p-tolylfuro[2,3-b]pyridine-3-carboxamide]",0.002 µM
11,"CNC(=O)c1c(-c2ccc(F)cc2)oc2nc(N(CCCN3CCNC3=O)S(C)(=O)=O)c(I)cc12 [Example 18.91, 2-(4-fluorophenyl)-5-iodo-N-methyl-6-(N-(3-(2-oxoimidazolidin-1-yl)propyl)methylsulfonamido)furo[2,3-b]pyridine-3-carboxamide]",0.133 µM
12,"C=CCCCN(c1nc2oc(-c3ccc(F)cc3)c(C(=O)NC)c2cc1I)S(C)(=O)=O [Example 18.5, 2-(4-fluorophenyl)-5-iodo-N-methyl-6-(N-(pent-4-enyl)methylsulfonamido)furo[2,3-b]pyridine-3-carboxamide]",0.449 µM
13,"CCc1cc2c(C(=O)NC)c(-c3ccc(F)cc3)oc2nc1N(CCOCCOC)S(C)(=O)=O [Example 21.8, 5-ethyl-2-(4-fluorophenyl)-6-(N-(2-(2-methoxyethoxy)ethyl)methylsulfonamido)-N-methylfuro[2,3-b]pyridine-3-carboxamide]",0.688 µM
14,"CNC(=O)c1c(-c2ccc(F)cc2)oc2nc(N(C)S(C)(=O)=O)c(I)cc12 [Example 2, 2-(4-Fluoro-phenyl)-5-iodo-6-(methanesulfonyl-methyl-amino)-furo[2,3-b]pyridine-3-carboxylic acid methylamide]",0.163 µM
15,"CNC(=O)c1c(-c2ccc(F)cc2)oc2nc(N(CCCC(=O)OC)S(C)(=O)=O)c(I)cc12 [Example 18.7, methyl 4-(N-(2-(4-fluorophenyl)-5-iodo-3-(methylcarbamoyl)furo[2,3-b]pyridin-6-yl)methylsulfonamido)butanoate]",0.076 µM
16,"CCc1cc2c(C(=O)NC)c(-c3ccc(F)cc3)oc2nc1N(CCc1ccncc1)S(C)(=O)=O [Example 21.996, 5-ethyl-2-(4-fluorophenyl)-N-methyl-6-(N-(2-(pyridin-4-yl)ethyl)methylsulfonamido)furo[2,3-b]pyridine-3-carboxamide]",0.094 µM
17,"CNC(=O)c1c(-c2ccc(C)cc2)oc2nc(N(CCCCCBr)S(C)(=O)=O)c(C3CC3)cc12 [Example 29.998, 6-(N-(5-bromopentyl)methylsulfonamido)-5-cyclopropyl-N-methyl-2-p-tolylfuro[2,3-b]pyridine-3-carboxamide]",0.003 µM
18,"C=CCCCN(c1nc2oc(-c3ccc(C)cc3)c(C(=O)NC)c2cc1C1CC1)S(C)(=O)=O [Example 29.99, 5-cyclopropyl-N-methyl-6-(N-(pent-4-enyl)methylsulfonamido)-2-p-tolylfuro[2,3-b]pyridine-3-carboxamide]",0.014 µM
19,"CNC(=O)c1c(-c2ccc(F)cc2)oc2nc(N(C)S(C)(=O)=O)c(CCCC(=O)N3CCC[C@H]3C(N)=O)cc12 [Example 4.4, (S)-5-(4-(2-carbamoylpyrrolidin-1-yl)-4-oxobutyl)-2-(4-fluorophenyl)-N-methyl-6-(N-methylmethylsulfonamido)furo[2,3-b]pyridine-3-carboxamide]",0.2 µM
20,"CCc1cc2c(C(=O)NC)c(-c3ccc(F)cc3)oc2nc1N(CCN1CCSCC1)S(C)(=O)=O [Example 22.3, 5-ethyl-2-(4-fluorophenyl)-N-methyl-6-(N-(2-thiomorpholinoethyl)methylsulfonamido)furo[2,3-b]pyridine-3-carboxamide]",0.089 µM
21,"CCc1cc2c(C(=O)NC)c(-c3ccc(Oc4ccccc4)cc3)oc2nc1N(C)S(C)(=O)=O [Example 17, 5-ethyl-N-methyl-6-(N-methylmethylsulfonamido)-2-(4-phenoxyphenyl)furo[2,3-b]pyridine-3-carboxamide]",0.128 µM
22,"C=CCN(c1nc2oc(-c3ccc(C)cc3)c(C(=O)NC)c2cc1C1CC1)S(C)(=O)=O [Example 29.97, 6-(N-allylmethylsulfonamido)-5-cyclopropyl-N-methyl-2-p-tolylfuro[2,3-b]pyridine-3-carboxamide]",0.003 µM
